Assay results reported in patent publication US7863271B2, “2-aminobenzoxazole carboxamides as 5HT3 modulators” (Albany Molecular Research, Inc., priority 2006, dated 2011).
Structures can show the parent of a compound that is named as a salt.

These compounds were tested against T1, 5-HT3 (Homo sapiens, UniProt P46098) (assay: Compound affinity for the human 5-HT3 receptor (Assay B), SPA radioligand binding with [9-methyl-3H]BRL-43694). Conditions: Assay B (method B unless otherwise annotated); read-out: 5-HT3 Ki.
T1 sequence (P46098 24-478): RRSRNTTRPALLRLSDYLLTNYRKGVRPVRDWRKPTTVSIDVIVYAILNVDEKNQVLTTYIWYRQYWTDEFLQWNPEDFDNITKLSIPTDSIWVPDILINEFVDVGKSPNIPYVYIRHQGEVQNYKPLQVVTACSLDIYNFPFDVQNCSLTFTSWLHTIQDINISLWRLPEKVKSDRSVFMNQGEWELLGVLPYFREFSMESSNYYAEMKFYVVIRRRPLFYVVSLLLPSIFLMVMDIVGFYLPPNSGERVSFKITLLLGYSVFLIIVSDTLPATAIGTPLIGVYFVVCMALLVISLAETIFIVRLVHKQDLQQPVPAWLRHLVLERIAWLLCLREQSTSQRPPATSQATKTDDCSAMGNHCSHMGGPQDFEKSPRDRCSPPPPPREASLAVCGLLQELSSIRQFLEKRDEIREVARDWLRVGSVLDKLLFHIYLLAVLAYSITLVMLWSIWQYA
Design: purchased Perkin Elmer
Experimental: Compound Affinity for the human 5-HT3 Receptor (Assay B)
The relative affinity of the various compounds for the human 5-HT3 receptor was measured in a radioligand binding assay, using a scintillation proximity assay (SPA) format. Test compounds were dissolved to 10 mM in 100% DMSO, then serially diluted at 10× assay concentrations in 100% DMSO in 96-well polypropylene plates and further diluted to 4× assay concentrations with the assay buffer. […] Binding reactions were set up in wells of PicoPlates-96 (Perkin Elmer) by adding consecutively 50 μL of each competing compound or buffer, SPA beads, the radioligand and 5-HT3 receptor membranes. After 60-min incubation at room temperature on a Nutator mixer, plates were centrifuged for 15 min at 1,500 rpm, followed by incubation in the dark for 30 min. Radioactivity was counted in the TopCount microplate counter (Perkin Elmer) for 5 min. […] Specific binding was determined by subtracting nonspecific binding from total binding. All experiments were performed in duplicate using ten concentrations of a competing ligand, with ondansetron included as a control in every run. IC50 values were determined from specific binding data using XLfit4.1 curve fitting software from IDBS Ltd. Ki values were then calculated from the Cheng-Prusoff equation.

`CN1[C@@H]2CCC[C@H]1C[C@@H](NC(=O)c1cccc3oc(N4CCOCC4c4ccccc4)nc13)C2` (mixture of isomers) [Example 19, Endo-N-(9-Methyl-9-azabicyclo[3.3.1]non-3-yl)-2-(3-phenylmorpholino)benzoxazole-4-carboxamide Hydrochloride] and `CN1CCN(c2nc3c(C(=O)N[C@H]4C[C@H]5CCC[C@@H](C4)N5C)cccc3o2)C(c2ccccc2)C1` (mixture of isomers) [Example 23, Endo-N-(9-Methyl-9-azabicyclo[3.3.1]non-3-yl)-2-(4-methyl-2-phenylpiperazin-1-yl)benzoxazole-4-carboxamide Dihydrochloride] are within 1.5-fold of each other in Ki: 17 nM for the first, 25.2 nM for the second.

First: CN1CCN(c2nc3c(C(=O)NC4CN5CCC4CC5)cccc3o2)C(c2ccccc2)C1 (racemic) [Example 24, (S)—N-(quinuclidine-8-yl)-2-(4-methyl-2-phenylpiperazin-1-yl)benzoxazole-4-carboxamide Dihydrochloride]
Second: O=C(NC1CN2CCC1CC2)c1cccc2oc(N3CCOCC3c3ccccc3)nc12 [Example 20, (S)—N-(quinuclidine-8-yl)-2-(3-phenylmorpholino)benzoxazole-4-carboxamide Hydrochloride]
The Ki of the first is 3-fold higher: 103 nM for the first, 34.4 nM for the second. The second binds more tightly here.

Compared with `C[C@@H]1CN(c2nc3c(C(=O)NC4CC5CCCC(C4)N5C)cccc3o2)[C@@H](C)CN1` (relative stereo) [Example 60, Endo N-(9-Methyl-9-azabicyclo[3.3.1]nonan-3-yl)-2-((2S*,5R*)-2,5-dimethylpiperazin-1-yl)benzoxazole-4-carboxamide Hydrochloride], `CC1CNCCN1c1nc2c(C(=O)N[C@H]3C[C@H]4CCC[C@@H](C3)N4C)cccc2o1` (stereo partly drawn) [Example 25, Endo-N-(9-Methyl-9-azabicyclo[3.3.1]non-3-yl)-2-(2-methylpiperazin-1-yl)benzoxazole-4-carboxamide Dihydrochloride] is 2.6-fold higher in Ki: 10.5 nM for the first, 27.5 nM for the second.

First: C=CCN1C[C@H](C)N(c2nc3c(C(=O)NC4CC5CCCC(C4)N5C)cccc3o2)C[C@H]1C (relative stereo) [Example 147, Endo-N-(9-Methyl-9-azabicyclo[3.3.1]nonan-3-yl)-2-((2S*,5R*)-4-allyl-2,5-dimethylpiperazin-1-yl)benzoxazole-4-carboxamide Dihydrochloride]
Second: C[C@@H]1CN(c2nc3c(C(=O)NC4CC5CCCC(C4)N5C)cccc3o2)C[C@H](C)O1 (stereo partly drawn) [Example 17, Endo-N-(9-Methyl-9-azabicyclo[3.3.1]non-3-yl)-2-[(2S,6R)-2,6-dimethylmorpholino]benzoxazole-4-carboxamide Hydrochloride]
The Ki of the first is 5-fold lower: 10.8 nM for the first, 54.2 nM for the second. The first binds more tightly here.

`CN1CCN(c2nc3c(C(=O)N[C@H]4C[C@H]5CCC[C@@H](C4)N5C)cccc3o2)CC1` [Example 1, Endo-N-(9-Methyl-9-azabicyclo[3.3.1]non-3-yl)-2-(4-methylpiperazin-1-yl)benzoxazole-4-carboxamide Dihydrochloride] and `CN1CCCN(c2nc3c(C(=O)N[C@H]4C[C@H]5CCC[C@@H](C4)N5C)cccc3o2)CC1` [Example 11, Endo-N-(9-Methyl-9-azabicyclo[3.3.1]non-3-yl)-2-(4-methyl-1,4-diazepam-1-yl)benzoxazole-4-carboxamide Dihydrochloride] are within 1.5-fold of each other in Ki: 85 nM for the first, 89.6 nM for the second.

`CN1CCN(c2nc3c(C(=O)N[C@@H]4CN5CCC4CC5)cccc3o2)CC1` [Example 2, (S)—N-(quinuclidine-8-yl)-2-(4-methylpiperazin-1-yl)benzoxazole-4-carboxamide Dihydrochloride] and `CN1CCCN(c2nc3c(C(=O)NC4CN5CCC4CC5)cccc3o2)CC1` [Example 12, (S)—N-(quinuclidine-8-yl)-2-(4-methyl-1,4-diazepam-1-yl)benzoxazole-4-carboxamide Dihydrochloride] are within 1.5-fold of each other in Ki: 382 nM for the first, 317 nM for the second.

First: CN1[C@@H]2CCC[C@H]1C[C@@H](NC(=O)c1cccc3oc(N4CCCCC4)nc13)C2 [Example 3, Endo-N-(9-Methyl-9-azabicyclo[3.3.1]non-3-yl)-2-(piperidin-1-yl)benzoxazole-4-carboxamide Hydrochloride]
Second: CN1[C@@H]2CCC[C@H]1C[C@@H](NC(=O)c1cccc3oc(N4CCOCC4)nc13)C2 [Example 9, Endo-N-(9-Methyl-9-azabicyclo[3.3.1]non-3-yl)-2-morpholinobenzoxazole-4-carboxamide Hydrochloride]
The Ki of the first is 4-fold lower: 10.4 nM for the first, 42 nM for the second.

First: O=C(N[C@@H]1CN2CCC1CC2)c1cccc2oc(N3CCCCC3)nc12 [Example 4, (S)—N-(quinuclidine-8-yl)-2-(piperidin-1-yl)benzoxazole-4-carboxamide hydrochloride]
Second: O=C(N[C@@H]1CN2CCC1CC2)c1cccc2oc(N3CCOCC3)nc12 [Example 10, (S)—N-(quinuclidine-8-yl)-2-morpholino-benzoxazole-4-carboxamide Hydrochloride]
The Ki of the first is 4.8-fold lower: 34.2 nM for the first, 164 nM for the second. The first binds more tightly here.

`CN1[C@@H]2CCC[C@H]1C[C@@H](NC(=O)c1cccc3oc(Nc4ccccc4)nc13)C2` [Example 5, Endo-N-(9-Methyl-9-azabicyclo[3.3.1]non-3-yl)-2-(phenylamino)benzoxazole-4-carboxamide Hydrochloride] and `CN1[C@@H]2CCC[C@H]1C[C@@H](NC(=O)c1cccc3oc(Nc4ccncc4)nc13)C2` [Example 27, Endo-N-(9-Methyl-9-azabicyclo[3.3.1]non-3-yl)-2-(pyridine-4-ylamino)benzoxazole-4-carboxamide Dihydrochloride] are within 1.5-fold of each other in Ki: 6.25 nM for the first, 4.5 nM for the second.

First: O=C(N[C@@H]1CN2CCC1CC2)c1cccc2oc(Nc3ccccc3)nc12 [Example 6, (S)—N-(quinuclidine-8-yl)-2-(phenylamino) benzoxazole-4-carboxamide Hydrochloride]
Second: O=C(N[C@@H]1CN2CCC1CC2)c1cccc2oc(N3CCNCC3)nc12 [Example 22, (S)—N-(quinuclidine-8-yl)-2-(piperazin-1-yl)benzoxazole-4-carboxamide Dihydrochloride]
The Ki of the first is 40-fold lower: 8.1 nM for the first, 321 nM for the second.

Going from `CN(C)c1nc2c(C(=O)N[C@H]3C[C@H]4CCC[C@@H](C3)N4C)cccc2o1` [Example 7, Endo-N-(9-Methyl-9-azabicyclo[3.3.1]non-3-yl)-2-(dimethylamino)benzoxazole-4-carboxamide Hydrochloride] to `CN1[C@@H]2CCC[C@H]1C[C@@H](NC(=O)c1cccc3oc(NC4CNC4)nc13)C2` [Example 16, Endo-N-(9-Methyl-9-azabicyclo[3.3.1]non-3-yl)-2-(azetidin-3-ylamino)benzoxazole-4-carboxamide Dihydrochloride], the Ki rises from 6.1 nM to 179 nM (29-fold). The first binds more tightly here.

First: C[C@@H]1CN(c2nc3c(C(=O)N[C@@H]4CN5CCC4CC5)cccc3o2)C[C@H](C)O1 [Example 18, (S)—N-(quinuclidine-8-yl)-2-((2S,6R)-2,6-dimethylmorpholino)benzoxazole-4-carboxamide Hydrochloride]
Second: CC1CNCCN1c1nc2c(C(=O)NC3CN4CCC3CC4)cccc2o1 [Example 26, (S)—N-(quinuclidine-8-yl)-2-(2-methylpiperazin-1-yl)benzoxazole-4-carboxamide Dihydrochloride]
The Ki of the first is 1.8-fold higher: 443 nM for the first, 241 nM for the second. The second binds more tightly here.

Compound `CN1[C@@H]2CCC[C@H]1C[C@@H](NC(=O)c1cccc3oc(N4CCNCC4)nc13)C2` [Example 21, Endo-N-(9-Methyl-9-azabicyclo[3.3.1]non-3-yl)-2-(piperazin-1-yl)benzoxazole-4-carboxamide Dihydrochloride] has a Ki of 74.6 nM.
